Species on record: Rattus norvegicus
Assay: DrugMatrix - Regimen: Daily Repeat
Type: toxicity, organism-based, Sprague-Dawley
Set-up: regimen Daily Repeat, gender Male, age 6-8 weeks
Details: in vivo, po, route oral GAVAGE, vehicle 100 % WATER; for ABSOLUTE BASOPHIL / ABSOLUTE EOSINOPHIL / ABSOLUTE LYMPHOCYTE / ABSOLUTE MONOCYTE / ABSOLUTE SEGMENTED NEUTROPHIL / BASOPHIL / EOSINOPHIL / ERYTHROCYTE COUNT / HEMATOCRIT / HEMOGLOBIN / LEUKOCYTE COUNT / LYMPHOCYTE / MEAN CORPUSCULAR HEMOGLOBIN / MEAN CORPUSCULAR HEMOGLOBIN CONCENTRATION / MEAN CORPUSCULAR VOLUME / MONOCYTE / NEUTROPHIL / NUCLEATED RED BLOOD CELLS / PLATELET COUNT: tissue Blood; for ALANINE AMINOTRANSFERASE / ALBUMIN / ALKALINE PHOSPHATASE / ASPARTATE AMINOTRANSFERASE / BLOOD UREA NITROGEN / CARBON DIOXIDE / CHLORIDE / CHOLESTEROL / CREATINE PHOSPHOKINASE / CREATININE / GLUCOSE / LACTATE DEHYDROGENASE / LIPASE / PHOSPHORUS / POTASSIUM / SODIUM / TOTAL BILIRUBIN / TOTAL PROTEIN / URIC ACID: tissue Plasma
[1] = 6 mg/kg, 120 h, dose level Low, time 5 day
[2] = 414 mg/kg, 72 h, dose level High, time 3 day
[3] = 414 mg/kg, 120 h, dose level High, time 5 day

## CN1CCN(C(=O)OC2c3nccnc3C(=O)N2c2ccc(Cl)cn2)CC1 (centres undefined) [ZOPICLONE]
[1]
  ABSOLUTE BASOPHIL: 0 CELLS/uL
  ABSOLUTE EOSINOPHIL: 89.67 CELLS/uL
  ABSOLUTE LYMPHOCYTE: 11847.67 CELLS/uL
  ABSOLUTE MONOCYTE: 80.67 CELLS/uL
  ABSOLUTE SEGMENTED NEUTROPHIL: 982 CELLS/uL
  BASOPHIL: 0%
  EOSINOPHIL: 0.67%
  ERYTHROCYTE COUNT: 6 x10E6/uL
  HEMATOCRIT: 36.37%
  HEMOGLOBIN: 14 G/DL
  LEUKOCYTE COUNT: 13 x10E3/uL
  LYMPHOCYTE: 91%
  MEAN CORPUSCULAR HEMOGLOBIN: 23.3 pg
  MEAN CORPUSCULAR HEMOGLOBIN CONCENTRATION: 38.5 G/DL
  MEAN CORPUSCULAR VOLUME: 60.6 fL
  MONOCYTE: 0.67%
  NEUTROPHIL: 7.67%
  NUCLEATED RED BLOOD CELLS: 0 /100WBC
  PLATELET COUNT: 827.33 x10E3/uL
  ALANINE AMINOTRANSFERASE: 51.67 u/L
  ALBUMIN: 4.07 G/DL
  ALKALINE PHOSPHATASE: 386.67 u/L
  ASPARTATE AMINOTRANSFERASE: 91.33 u/L
  BLOOD UREA NITROGEN: 15 mg/dL
  CARBON DIOXIDE: 32 mmol/L
  CHLORIDE: 101.67 MEQ/L
  CHOLESTEROL: 61.33 mg/dL
  CREATINE PHOSPHOKINASE: 428.33 u/L
  CREATININE: 0.13 mg/dL
  GLUCOSE: 151.33 mg/dL
  LACTATE DEHYDROGENASE: 157.67 u/L
  LIPASE: 10 u/L
  PHOSPHORUS: 12.2 mg/dL
  POTASSIUM: 6.32 MEQ/L
  SODIUM: 146.2 MEQ/L
  TOTAL BILIRUBIN: 0.17 mg/dL
  TOTAL PROTEIN: 6.03 G/DL
  URIC ACID: 1.17 mg/dL
[2]
  ABSOLUTE BASOPHIL: 0 CELLS/uL
  ABSOLUTE EOSINOPHIL: 54 CELLS/uL
  ABSOLUTE LYMPHOCYTE: 11865 CELLS/uL
  ABSOLUTE MONOCYTE: 279 CELLS/uL
  ABSOLUTE SEGMENTED NEUTROPHIL: 4168.67 CELLS/uL
  BASOPHIL: 0%
  EOSINOPHIL: 0.33%
  ERYTHROCYTE COUNT: 5.87 x10E6/uL
  HEMATOCRIT: 36.97%
  HEMOGLOBIN: 14.13 G/DL
  LEUKOCYTE COUNT: 16.37 x10E3/uL
  LYMPHOCYTE: 72.33%
  MEAN CORPUSCULAR HEMOGLOBIN: 24.1 pg
  MEAN CORPUSCULAR HEMOGLOBIN CONCENTRATION: 38.23 G/DL
  MEAN CORPUSCULAR VOLUME: 63.03 fL
  MONOCYTE: 1.67%
  NEUTROPHIL: 25.67%
  NUCLEATED RED BLOOD CELLS: 0 /100WBC
  PLATELET COUNT: 1420.33 x10E3/uL
  ALANINE AMINOTRANSFERASE: 76 u/L
  ALBUMIN: 3.9 G/DL
  ALKALINE PHOSPHATASE: 416.33 u/L
  ASPARTATE AMINOTRANSFERASE: 81 u/L
  BLOOD UREA NITROGEN: 15.67 mg/dL
  CARBON DIOXIDE: 31.67 mmol/L
  CHLORIDE: 101.33 MEQ/L
  CHOLESTEROL: 79 mg/dL
  CREATINE PHOSPHOKINASE: 490.67 u/L
  CREATININE: 0.17 mg/dL
  GLUCOSE: 142.33 mg/dL
  LACTATE DEHYDROGENASE: 208 u/L
  LIPASE: 10.67 u/L
  PHOSPHORUS: 9.37 mg/dL
  POTASSIUM: 5.75 MEQ/L
  SODIUM: 145.07 MEQ/L
  TOTAL BILIRUBIN: 0.13 mg/dL
  TOTAL PROTEIN: 5.97 G/DL
  URIC ACID: 0.43 mg/dL
[3]
  ABSOLUTE BASOPHIL: 0 CELLS/uL
  ABSOLUTE EOSINOPHIL: 34 CELLS/uL
  ABSOLUTE LYMPHOCYTE: 13648.67 CELLS/uL
  ABSOLUTE MONOCYTE: 500 CELLS/uL
  ABSOLUTE SEGMENTED NEUTROPHIL: 2484 CELLS/uL
  BASOPHIL: 0%
  EOSINOPHIL: 0.33%
  ERYTHROCYTE COUNT: 6.38 x10E6/uL
  HEMATOCRIT: 38.3%
  HEMOGLOBIN: 14.7 G/DL
  LEUKOCYTE COUNT: 16.67 x10E3/uL
  LYMPHOCYTE: 81%
  MEAN CORPUSCULAR HEMOGLOBIN: 23.07 pg
  MEAN CORPUSCULAR HEMOGLOBIN CONCENTRATION: 38.37 G/DL
  MEAN CORPUSCULAR VOLUME: 60.13 fL
  MONOCYTE: 3%
  NEUTROPHIL: 15.67%
  NUCLEATED RED BLOOD CELLS: 0 /100WBC
  PLATELET COUNT: 1154.67 x10E3/uL
  ALANINE AMINOTRANSFERASE: 76.67 u/L
  ALBUMIN: 3.57 G/DL
  ALKALINE PHOSPHATASE: 365 u/L
  ASPARTATE AMINOTRANSFERASE: 80.33 u/L
  BLOOD UREA NITROGEN: 15.33 mg/dL
  CARBON DIOXIDE: 30.33 mmol/L
  CHLORIDE: 102 MEQ/L
  CHOLESTEROL: 68 mg/dL
  CREATINE PHOSPHOKINASE: 261.33 u/L
  CREATININE: 0.22 mg/dL
  GLUCOSE: 118.67 mg/dL
  LACTATE DEHYDROGENASE: 110.33 u/L
  LIPASE: 11 u/L
  PHOSPHORUS: 11.23 mg/dL
  POTASSIUM: 6.36 MEQ/L
  SODIUM: 146.63 MEQ/L
  TOTAL BILIRUBIN: 0.1 mg/dL
  TOTAL PROTEIN: 5.73 G/DL
  URIC ACID: 1.53 mg/dL

Source: ChEMBL document CHEMBL3885881, “DrugMatrix”
